From a melting point compilation (Tetko et al.)

Row | SMILES | melting point [°C]
1 | O=Cc1cnc(-c2cccnc2)s1 | 139 to 141
2 | CC(C)S(=O)(=O)C(C)C(=O)O (stereo unspecified) | 96 to 98
3 | Cn1cnc2cc(C#N)ccc21 | 139 to 141
4 | O=c1[nH]c(-c2ccc(Cl)s2)nc2c1CCC2 | 276 to 278
5 | Cc1n[nH]c(C)c1[N+](=O)[O-] | 121 to 123
6 | Nc1c(Cl)cc(Cl)c2c1N=S=N2 | 176 to 178
7 | NNc1nc(-c2ccncc2)no1 | 189 to 191
8 | Cc1cc(C#N)ccc1NC1CCC(O)CC1 (stereo unspecified) | 119 to 121
9 | CCC1CCC2(CC1)NC(=O)NC2=O (stereo unspecified) | 230 to 232
10 | Cc1c(C)c(C)c(C(=O)CCl)c(C)c1C | 70 to 72
11 | CC(C)(CCCc1ccccc1)C(=O)O | 48 to 50
12 | Cc1nc(NC(=O)NN)no1 | 288 to 290
13 | O=C(O)C1CCCN(C(=O)c2ccc(Cl)c(Cl)c2)C1 (stereo unspecified) | 163 to 165
14 | NC1CCCCNC1=O (stereo unspecified) | 54 to 56
15 | CC(=O)NNC(=O)CCl | 157 to 159
16 | CC1CCN(c2cc(C(=O)O)ccn2)C1 (stereo unspecified) | 195 to 197
17 | Nc1nc(CN2CCOCC2)cs1 | 145 to 150
18 | Cc1nc[nH]c1C | 103 to 105
19 | O=C(O)c1sc2cc(Cl)cc(Cl)c2c1Cl | 248 to 250
20 | CCOc1ccc(N2C(=O)c3ccc(C(=O)O)cc3C2=O)cc1 | 265 to 267
21 | CC1CC1C(=O)NN (stereo unspecified) | 85 to 87
22 | CCOC(=O)Cc1csc(NC(=O)Cc2ccccc2)n1 | 92 to 94
23 | Cc1nnc(SCCC(=O)O)[nH]1 | 131 to 133

Row | SMILES | melting point [°C]
24 | CN(C)c1ncccc1O | 173 to 175
25 | Cc1ccccc1CC(N)=NO | 121 to 123
26 | Cc1ccc2ncnc(O)c2c1 | 238 to 240
27 | Cc1oc(C(N)=O)cc1-c1csc(N)n1 | 224 to 226
28 | CCOC(=O)Nc1nc2ccc(N)cc2s1 | 339 to 341
29 | NNC(=O)c1cnccn1 | 170 to 172
30 | CC(C)c1nc(Cl)nc(N(C)C)n1 | 57 to 59
31 | Cc1cccc(N2CCN(CCN)CC2)c1C | 60 to 62
32 | COc1cc(C(=O)O)ccc1OCc1csc(C)n1 | 172 to 174
33 | Cc1ccoc1-c1nnc(CCl)o1 | 49 to 51
34 | Nc1nc(-c2ccc3c(c2)COC3)cs1 | 204 to 206
35 | N#Cc1ccc(S)cc1C(F)(F)F | 71 to 73
36 | Cc1cc(=O)c(C(=O)O)n[nH]1 | 193 to 195
37 | CC(C)c1cc(Br)cc([N+](=O)[O-])c1N | 39 to 41
38 | CC(C)n1ncc2cc(C=O)c(Cl)nc21 | 78 to 80
39 | CCOC(=O)c1cnn(-c2nc3ccccc3s2)c1N | 137 to 139
40 | CC1(NC(=O)CCl)CCS(=O)(=O)C1 (stereo unspecified) | 96 to 98
41 | Nc1nc(CO)n[nH]1 | 193 to 195
42 | O=C(O)Cn1cnc([N+](=O)[O-])n1 | 187 to 189
43 | Cn1cnc2cc(C(=O)O)cnc21 | 284 to 286
44 | CC1(C)CN(CC(N)=NO)CCO1 | 75 to 77
45 | CC(O)c1nc2ncc(Br)cc2[nH]1 (stereo unspecified) | 218 to 220
46 | Nc1nnc(CO)s1 | 169 to 171

Row | SMILES | melting point [°C]
47 | Cc1ccc(C#N)c(OC2CCCC2)c1 | 66 to 68
48 | O=C(O)c1csc(-c2ccoc2)n1 | 166 to 168
49 | CN(C)CCn1nnnc1S | 213 to 215
50 | Cc1ccncc1-n1ccnc1 | 64 to 66
51 | COc1ccc(CNC(=O)OC(C)(C)C)c(OC)c1 | 59 to 61
52 | Cc1ccc(-c2nc(CC(=O)O)cs2)c(C)c1 | 104 to 106
53 | Nc1cc(-n2cnnn2)ccc1Cl | 159 to 161
54 | COc1ccc(C(=O)N2CCOCC2)cc1N | 150 to 152
55 | CC(C)c1cc(N)n(-c2ncccn2)n1 | 146 to 148
56 | NOC1CCCCO1 (stereo unspecified) | 34 to 37
57 | CC(C)(C)OC(=O)NCCOc1cccc(N)c1 | 65 to 67
58 | CC(C)(C)c1nonc1N | 90 to 92
59 | CCOC(=O)c1cccnc1S | 99 to 101
60 | CNc1ncc(I)cn1 | 134 to 136
61 | Cc1nc(N)c(I)cc1Br | 135 to 137
62 | Cc1cccc(-n2nnnc2S)c1C | 115 to 117
63 | Cc1ccc(-c2nn(-c3ccccc3)cc2CO)cc1C | 134 to 136
64 | CN1CCCN(C(=O)c2ccccc2N)CC1 | 80 to 82
65 | O=C1CCC(C(F)(F)F)=NN1 | 75 to 77
66 | CN(C)/C=C(/C#N)C(N)=O | 166 to 168
67 | Nc1ncc(C(=O)O)cc1Cl | 338 to 340
68 | COc1cc2c(cc1OC)C(c1ccccc1)N(C(=O)CCl)CC2 (stereo unspecified) | 218 to 222
69 | NNC(=O)Cc1cn2ccccc2n1 | 128 to 130

The remaining lines, values ahead:

Row | melting point [°C] | SMILES
70 | 201 to 203 | O=c1c(-c2ccccc2)coc2cc(O)ccc12
71 | 267 to 269 | O=C(O)c1ccc2c(c1)C(=O)NC2=O
72 | 76 to 78 | O=C(O)CCSc1ccc(F)cc1
73 | 183 to 185 | O=CNc1cc([N+](=O)[O-])ccc1Cl
74 | 240 to 242 | Cc1ccc(-n2nc(C(=O)O)ccc2=O)cc1Cl
75 | 167 to 170 | NC(=O)c1cnn(-c2ccccc2)c1N
76 | 89 to 91 | CC(CC#N)Sc1ccccc1NC(=O)CCl (stereo unspecified)
77 | 34 to 36 | Cc1c(I)cccc1[N+](=O)[O-]
78 | 108 to 110 | Cc1ccccc1SCC(=O)O
79 | 51 to 53 | O=S(=O)(c1ccc(F)cc1)C(F)F
80 | 148 to 150 | Cc1ccc(NC(N)=S)cc1F
81 | 135 to 137 | CN(C)S(=O)(=O)c1ccc(N2CCCCC2)c(C(=O)O)c1
82 | 103 to 105 | CN(Cc1cc(C#N)ccc1F)C(=O)CCl
83 | 127 to 129 | O=C(CCl)c1ccc(N2CCCC2=O)cc1
84 | 103 to 105 | Oc1ccccc1CNc1ccc(F)cc1
85 | 154 to 156 | CC(C)Oc1ccc(C(=O)NCC(=O)O)cc1
86 | 242 to 244 | O=C(O)c1ccc2ncoc2c1
87 | 83 to 85 | Cc1ccc(N2CCC(Br)C2=O)cc1 (stereo unspecified)
88 | 66 to 68 | CCOc1ccc(OC(C)(C)C(=O)O)cc1
89 | 96 to 98 | COc1ccccc1CC(C)=CC(=O)O
90 | 103 to 105 | COC(=O)c1nc(Cl)c2ccccc2c1OC
91 | 49 to 51 | COc1cc(F)ccc1[N+](=O)[O-]
92 | 103 to 105 | CC(=O)c1ccc(Cl)c(N)c1
93 | 165 to 167 | O=C(O)c1ccccc1NS(=O)(=O)c1ccc(F)cc1
94 | 154 to 156 | Fc1ccc(-n2ncc3c(Cl)ncnc32)cc1
95 | 180 to 182 | CC1CCN(S(=O)(=O)c2ccc(C(=O)O)cc2)CC1

Row | melting point [°C] | SMILES
96 | 137 to 139 | CN1C(=O)C(=O)c2ccc(F)cc21
97 | 179 to 181 | O=C(O)c1ccn(-c2c(F)cccc2F)n1
98 | 183 to 185 | COCCNS(=O)(=O)c1cc(C(=O)O)ccc1OC
99 | 205 to 209 | CN(C)S(=O)(=O)c1ccc2c(c1)nc(CCC(=O)O)n2C
100 | 182 to 184 | NC(=NO)c1cccc([N+](=O)[O-])c1
101 | 146 to 148 | OC(c1ccc(F)cc1)C1CCNCC1 (stereo unspecified)
102 | 74 to 76 | CCOc1ccccc1C(=O)CBr
103 | 150 to 152 | OCc1nc2ccccc2n1C(F)F
104 | 73 to 75 | O=C(O)CSc1ccc(F)cc1F
105 | 220 to 222 | COc1ccc(C2C(C(N)=O)CCC(=O)N2C)cc1 (stereo unspecified)
106 | 82 to 84 | Nc1ccc(NC(=O)CN2CCCCCC2)cc1
107 | 105 to 107 | CC1(c2cccc3ccccc23)NC(=O)NC1=O (stereo unspecified)
108 | 88 to 90 | Cc1coc(-c2cccc(N)c2)n1
109 | 114 to 116 | CCOc1ccc(S(=O)(=O)NN)cc1
110 | 209 to 211 | CCOc1ccccc1-c1csc(N)n1
111 | 209 to 211 | Cc1ccc(Cl)c2c1C(=O)C(=O)N2
112 | 229 to 231 | COc1ccc(/C=C/C(=O)O)cc1S(=O)(=O)N(C)C
113 | 128 to 130 | COc1ccc(C(=O)Nc2cccc(C=O)c2)cc1
114 | 107 to 109 | O=C(O)C1Cc2ccccc2S1 (stereo unspecified)
115 | 76 to 78 | O=[N+]([O-])c1ccccc1NCCO
116 | 204 to 206 | CC(=O)Nc1ccc(-c2csc(N)n2)c(F)c1
117 | 224 to 226 | O=[N+]([O-])c1ccc(-c2c[nH]cn2)cc1
118 | 104 to 106 | CC(=O)c1ccc2cccc3c2c1CC3
119 | 46 to 48 | COC(=O)c1c(F)cccc1S(=O)(=O)Cl
120 | 201 to 203 | O=C(O)c1ccc(Cl)c(S(=O)(=O)N(Cc2ccccc2)c2cccc(C(F)(F)F)c2)c1
121 | 201 to 203 | CC(NC(=O)CCl)c1ccc2ccccc2c1 (stereo unspecified)

Row | melting point [°C] | SMILES
122 | 45 to 47 | FC(F)(F)c1cc[nH]n1
123 | 45 to 47 | O=Cc1ccc(OCc2cccc(F)c2)cc1
124 | 127 to 129 | CC(N)c1ccc(OCC(N)=O)cc1 (stereo unspecified)
125 | 217 to 219 | CCS(=O)(=O)Nc1nc2ccc(N)cc2s1
126 | 225 to 227 | N#Cc1ccc(NCC(=O)O)cc1
127 | 179 to 181 | Cc1ccc(S(N)(=O)=O)cc1NC(=O)CCl
128 | 50 to 52 | CC(=O)c1cc([N+](=O)[O-])ccc1C
129 | 194 to 196 | Cc1ccc(NS(=O)(=O)c2cccc(C(=O)O)c2)c(C)c1
130 | 128 to 130 | Cc1cccc2ncc(C=O)n12
131 | 93 to 95 | O=C(CCl)NCc1ccccc1[N+](=O)[O-]
132 | 163 to 165 | O=C(O)C(Cc1ccccc1)N1CCCOC1=O (stereo unspecified)
133 | 106 to 108 | Fc1ccc(CCNC2=NCCS2)cc1
134 | 254 to 256 | O=C(O)c1cnn(-c2ccc(Br)cc2)c1
135 | 90 to 92 | CC(C)(C)OC(=O)NCCC1CNc2ccccc21 (stereo unspecified)
136 | 126 to 128 | O=C(O)C1Cc2cccc(F)c2O1 (stereo unspecified)
137 | 224 to 226 | Nc1nncc(-c2cccc(F)c2)n1
138 | 246 to 248 | O=C1CC(c2ccccc2)=NN1
139 | 86 to 88 | CNS(=O)(=O)c1ccc2c(c1)NCC2
140 | 180 to 182 | COc1ccc(C(=O)O)cc1S(=O)(=O)N(C)Cc1ccccc1
141 | 92 to 96 | Cc1cc(C(=O)C(C)Cl)c(C)n1-c1ccc(OC(F)F)cc1 (stereo unspecified)
142 | 121 to 123 | COC(=O)c1ccc(C)c(NC(=O)OCC(F)(F)F)c1
143 | 66 to 68 | NCc1ccc(-c2cccnc2)cc1
144 | 141 to 143 | Nc1ccc(CN2C(=O)CCC2=O)cc1
145 | 134 to 136 | O=C(O)C(=O)NCc1ccc(F)cc1
146 | 107 to 109 | Oc1ccc(CNCc2ccco2)cc1
